Measured values reported in US20220273659A1, “HETEROCYCLIC COMPOUNDS AS KINASE INHIBITORS” (NUVATION BIO INC., priority 2019, published 2022).
Where two headings read alike, the source gives them in different places.

Tests used:
[1] = molecular target: T1, CDK2 (cyclin A) (Homo sapiens, UniProt P24941); assay: Z'-LYTE kinase assay; assay type: biochemical
T1 construct: purchased Invitrogen Life Technologies (assay service)
In short: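 FRET-based Z′-LYTE read-out using 1.22–10.3 ng CDK2/cyclin A with Ser/Thr 12 peptide (2 μM in the 2× mix) and ATP (31 μM as the 4× solution), in HEPES pH 7.5, MgCl2, EGTA and BRIJ-35, for 60 min at room temperature. After 1 h of development, the 445/520 nm emission was read, and percent inhibition was fitted to a four-parameter logistic curve for IC50.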

[2] = molecular target: T2, FMS kinase (Homo sapiens, UniProt P07333); assay: LanthaScreen Eu Kinase Binding Assay (ATP, fluorescent-PolyGT substrate); assay type: biochemical
T2 construct: purchased Invitrogen (Life Technologies)
T2 sequence (P07333 20-972): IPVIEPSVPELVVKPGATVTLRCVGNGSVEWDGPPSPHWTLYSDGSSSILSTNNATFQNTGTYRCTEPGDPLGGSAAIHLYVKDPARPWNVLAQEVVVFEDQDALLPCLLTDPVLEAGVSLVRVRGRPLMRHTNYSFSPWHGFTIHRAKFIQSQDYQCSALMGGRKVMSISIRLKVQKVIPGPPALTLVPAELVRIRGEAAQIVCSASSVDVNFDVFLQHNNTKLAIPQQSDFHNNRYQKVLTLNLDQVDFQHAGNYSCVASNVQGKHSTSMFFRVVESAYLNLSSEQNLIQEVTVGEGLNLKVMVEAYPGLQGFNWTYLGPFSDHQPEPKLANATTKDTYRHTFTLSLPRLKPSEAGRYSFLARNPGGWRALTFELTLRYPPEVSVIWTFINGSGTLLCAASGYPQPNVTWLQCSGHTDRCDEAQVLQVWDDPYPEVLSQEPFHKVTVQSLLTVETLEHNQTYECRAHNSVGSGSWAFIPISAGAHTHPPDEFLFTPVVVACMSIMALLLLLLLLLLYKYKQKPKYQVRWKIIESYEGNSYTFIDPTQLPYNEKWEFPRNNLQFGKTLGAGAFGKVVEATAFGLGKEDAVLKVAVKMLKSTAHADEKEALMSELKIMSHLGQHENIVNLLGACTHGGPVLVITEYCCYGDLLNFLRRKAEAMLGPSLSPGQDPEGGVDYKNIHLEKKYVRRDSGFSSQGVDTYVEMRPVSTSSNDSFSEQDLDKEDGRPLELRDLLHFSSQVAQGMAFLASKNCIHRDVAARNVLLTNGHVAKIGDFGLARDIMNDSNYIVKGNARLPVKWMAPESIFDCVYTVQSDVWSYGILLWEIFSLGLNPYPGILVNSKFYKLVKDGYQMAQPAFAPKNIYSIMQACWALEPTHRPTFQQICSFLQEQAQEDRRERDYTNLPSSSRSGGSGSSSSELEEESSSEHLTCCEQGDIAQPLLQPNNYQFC
In short: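 TR-FRET read (ex 340, em 495 and 520 nm) after EDTA/Tb-labelled antibody stop; IC50 by four-parameter logistic fit of percent inhibition. Reaction: 1.25 nM FMS, 10 min compound preincubation (3-fold series), then 1 h at room temperature with 10 μM ATP and 200 nM fluorescent PolyGT.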

[3] = molecular target: T3, CDK1 (cyclin B) (Homo sapiens, UniProt P06493); assay: Z'-LYTE kinase assay; assay type: biochemical
T3 construct: purchased Invitrogen Life Technologies (assay service)
T3 sequence (P06493 whole entry): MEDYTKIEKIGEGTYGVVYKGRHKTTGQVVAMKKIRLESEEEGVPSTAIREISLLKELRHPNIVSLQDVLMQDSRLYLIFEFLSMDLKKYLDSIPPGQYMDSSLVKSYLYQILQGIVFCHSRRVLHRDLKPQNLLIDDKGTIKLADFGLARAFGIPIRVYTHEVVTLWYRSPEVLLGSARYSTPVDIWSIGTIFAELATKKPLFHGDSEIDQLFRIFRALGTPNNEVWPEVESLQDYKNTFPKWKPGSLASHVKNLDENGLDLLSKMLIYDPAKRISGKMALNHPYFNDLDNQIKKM
T3 sequence (P14635 whole entry partner): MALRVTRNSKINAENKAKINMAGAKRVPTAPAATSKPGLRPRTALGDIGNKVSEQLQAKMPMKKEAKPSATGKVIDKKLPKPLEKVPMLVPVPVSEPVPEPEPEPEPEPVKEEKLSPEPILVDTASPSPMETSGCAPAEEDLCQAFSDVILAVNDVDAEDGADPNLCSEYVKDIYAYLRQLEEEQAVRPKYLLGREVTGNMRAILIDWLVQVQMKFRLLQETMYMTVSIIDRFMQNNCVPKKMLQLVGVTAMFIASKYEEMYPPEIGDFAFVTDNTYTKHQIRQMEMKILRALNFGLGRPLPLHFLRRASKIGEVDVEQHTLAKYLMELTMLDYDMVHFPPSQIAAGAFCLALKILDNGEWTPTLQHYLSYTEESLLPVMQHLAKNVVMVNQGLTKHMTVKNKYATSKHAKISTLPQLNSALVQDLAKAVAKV
Procedure: The plates were shaken for 30 seconds, and incubated for 60 minutes at room temperature. […] The plates were read on fluorescence plate reader with Dual emission at 445 nm and 520 nm.
The following equations were used for Z′-LYTE™ Screening Assay Data Analysis.

[4] = molecular target: T4, CDK6 (Homo sapiens, UniProt Q00534); assay: In vitro kinase inhibition IC50, luminescence (ADP Glo), retinoblastoma substrate; assay type: biochemical; conditions: read-out: CDK6/D1 IC50
T4 construct: purchased Invitrogen PR8422B
T4 sequence (Q00534 whole entry): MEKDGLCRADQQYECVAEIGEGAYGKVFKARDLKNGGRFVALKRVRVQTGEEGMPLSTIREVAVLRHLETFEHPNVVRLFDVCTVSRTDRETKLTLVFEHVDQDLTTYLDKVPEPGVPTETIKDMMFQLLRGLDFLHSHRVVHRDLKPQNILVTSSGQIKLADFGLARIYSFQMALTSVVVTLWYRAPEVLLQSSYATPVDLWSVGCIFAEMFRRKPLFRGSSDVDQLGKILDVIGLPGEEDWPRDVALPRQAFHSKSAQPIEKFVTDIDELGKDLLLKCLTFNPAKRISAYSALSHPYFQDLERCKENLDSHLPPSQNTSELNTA
T4 sequence (P24385 whole entry partner): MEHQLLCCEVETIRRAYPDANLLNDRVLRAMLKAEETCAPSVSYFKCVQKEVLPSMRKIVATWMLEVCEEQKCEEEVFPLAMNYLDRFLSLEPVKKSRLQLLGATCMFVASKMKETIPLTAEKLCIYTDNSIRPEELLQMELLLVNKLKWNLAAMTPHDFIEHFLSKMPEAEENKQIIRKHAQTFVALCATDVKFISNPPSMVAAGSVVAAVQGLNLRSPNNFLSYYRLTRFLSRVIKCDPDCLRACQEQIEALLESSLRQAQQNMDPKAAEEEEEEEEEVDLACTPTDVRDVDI
In short: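 IC50 derived by four-parameter logistic fit of percent inhibition, read as ADP-Glo luminescence. Reactions: 5 nM CDK6, 1 μM retinoblastoma, 25 μM ATP, test compound 0.1–200 nM final, 2 h at room temperature.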

[5] = molecular target: T5, CDK4 (Homo sapiens, UniProt P11802); assay: as above; assay type: biochemical; conditions: read-out: CDK4/D1 IC50
T5 construct: purchased Invitrogen PR8064A
T5 sequence (P11802 whole entry): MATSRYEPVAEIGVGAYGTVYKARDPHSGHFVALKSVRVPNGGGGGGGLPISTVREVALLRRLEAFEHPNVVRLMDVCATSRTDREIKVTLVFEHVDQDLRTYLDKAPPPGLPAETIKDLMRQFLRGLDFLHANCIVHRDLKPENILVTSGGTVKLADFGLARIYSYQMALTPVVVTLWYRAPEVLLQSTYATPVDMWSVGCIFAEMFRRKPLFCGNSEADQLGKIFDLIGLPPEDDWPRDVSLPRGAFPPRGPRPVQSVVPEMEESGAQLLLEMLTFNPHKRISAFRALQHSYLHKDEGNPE
T5 sequence (P24385 whole entry partner): as the sequence (P24385 whole entry partner) above
In short: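 Inhibition of CDK4 was quantified by ADP Glo luminescence with retinoblastoma as substrate. Reactions held 5 nM kinase, 1 μM retinoblastoma and 25 μM ATP and ran 2H at room temperature. A Synergy Neo reader took signals 15 min and 45 min after detection reagent, and percent inhibition was fitted to a four-parameter logistic model in XLfit to obtain IC50.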

[6] = tested on: MCF-7-PR (palbociclib-resistant MCF-7) cells; assay: Cell viability in palbociclib-resistant cell line; assay type: cell-based; conditions: for IC50: Homo sapiens, MCF7, Table 5, palbociclib-resistant cell line maintained at about 850 nM palbociclib
Procedure: Cells were treated with test compounds at 7 to 9 concentrations within a desired concentration range (e.g. 1.1 nM-10 μM) on day 2 by series diluting the test compound stock solution (10 mM in DMSO) with culture medium. Treatment duration was 24 Hr for BT-549 cells and 144 Hr (with a medium change at 72 Hr) for MCF-7 and DU4475 cells. Cell viability was assessed by Cell Titer-Glo® as recommended by Promega (Cat. No.: G7572), or by resazurin assay (Sigma Aldrich, Cat. No.: R7017) post treatment.
Cell viability data were plotted using GraphPad Prism (GraphPad Software, Inc., San Diego, Calif.). In addition, a nonlinear regression model with a sigmoidal dose response and variable slope within GraphPad Prism was used to calculate the IC50 value of individual test compounds.
The effects of test compounds in a palbociclib-resistant cell line and a parental, non-resistant cell line were compared. The palbociclib-resistant cell line (“MCF-7-PR”) was derived from the parental, non-resistant cell line (MCF-7 breast adenocarcinoma cells) by culture of cells over a period of three months in increasing concentrations of palbociclib, starting from about 350 nM and ending at about 850 nM, the final concentration at which they were then maintained in culture. The MCF-7-PR cells were checked using a cell viability assay to confirm that they had at least 5-fold resistance to palbociclib compared to parental MCF-7 cells, as measured by an increase in the cell viability IC50 values. Assessment of cell viability following treatment with palbociclib or test compounds was performed according to the method described above for MCF-7 cells.

[7] = tested on: DU4475 breast carcinoma cells; assay: Cancer cell proliferation assay, single agent (cell viability); assay type: cell-based; conditions: Homo sapiens, DU-4475; Table 4; Rb negative; treatment 144 Hr with medium change at 72 Hr; Cell Titer-Glo or resazurin
In short: (§1)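 Viability read by resazurin or CellTiter-Glo after 24 h treatment (BT-549) or 144 h with a 72 h medium change (MCF-7, DU4475). Compounds tested at 7–9 concentrations, e.g. 1.1 nM–10 μM, added the day after seeding; IC50 by nonlinear sigmoidal regression.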

[8] = tested on: MCF-7 breast adenocarcinoma cells; assay: as above; assay type: cell-based; conditions: Homo sapiens
In short: as §1

[9] = molecular target: T6, PI3Kδ kinase (Homo sapiens, UniProt O00329); assay: PI3Kδ kinase assay (ADP-Glo, Reaction Biology); assay type: biochemical
T6 construct: purchased Reaction Biology Corporation (assay service)
T6 sequence (O00329 whole entry): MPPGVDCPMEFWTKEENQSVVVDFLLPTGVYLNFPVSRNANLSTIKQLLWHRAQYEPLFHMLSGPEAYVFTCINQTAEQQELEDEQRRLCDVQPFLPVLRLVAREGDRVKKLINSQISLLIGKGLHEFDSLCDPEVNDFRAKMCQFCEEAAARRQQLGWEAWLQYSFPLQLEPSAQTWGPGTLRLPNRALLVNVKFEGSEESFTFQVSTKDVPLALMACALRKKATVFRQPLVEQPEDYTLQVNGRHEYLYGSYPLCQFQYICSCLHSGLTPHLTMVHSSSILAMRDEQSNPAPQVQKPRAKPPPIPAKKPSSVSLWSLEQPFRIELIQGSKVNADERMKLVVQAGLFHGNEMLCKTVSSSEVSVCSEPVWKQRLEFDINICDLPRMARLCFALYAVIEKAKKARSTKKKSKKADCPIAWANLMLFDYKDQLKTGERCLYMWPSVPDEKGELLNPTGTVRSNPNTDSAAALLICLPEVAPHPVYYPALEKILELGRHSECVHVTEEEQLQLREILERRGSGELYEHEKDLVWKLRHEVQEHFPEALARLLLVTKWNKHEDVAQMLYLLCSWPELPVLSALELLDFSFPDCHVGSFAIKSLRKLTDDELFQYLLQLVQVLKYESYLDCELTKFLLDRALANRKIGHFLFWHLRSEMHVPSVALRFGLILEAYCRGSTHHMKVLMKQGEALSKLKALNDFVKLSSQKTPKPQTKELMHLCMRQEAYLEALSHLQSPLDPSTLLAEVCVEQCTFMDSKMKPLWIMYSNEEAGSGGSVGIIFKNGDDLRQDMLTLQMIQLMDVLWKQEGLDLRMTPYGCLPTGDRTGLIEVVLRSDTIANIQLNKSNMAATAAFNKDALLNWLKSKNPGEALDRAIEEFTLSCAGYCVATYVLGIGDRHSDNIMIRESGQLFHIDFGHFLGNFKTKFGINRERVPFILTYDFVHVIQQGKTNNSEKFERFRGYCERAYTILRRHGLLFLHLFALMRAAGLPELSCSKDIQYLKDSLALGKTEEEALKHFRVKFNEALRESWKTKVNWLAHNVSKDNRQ
T6 sequence (P27986 whole entry partner): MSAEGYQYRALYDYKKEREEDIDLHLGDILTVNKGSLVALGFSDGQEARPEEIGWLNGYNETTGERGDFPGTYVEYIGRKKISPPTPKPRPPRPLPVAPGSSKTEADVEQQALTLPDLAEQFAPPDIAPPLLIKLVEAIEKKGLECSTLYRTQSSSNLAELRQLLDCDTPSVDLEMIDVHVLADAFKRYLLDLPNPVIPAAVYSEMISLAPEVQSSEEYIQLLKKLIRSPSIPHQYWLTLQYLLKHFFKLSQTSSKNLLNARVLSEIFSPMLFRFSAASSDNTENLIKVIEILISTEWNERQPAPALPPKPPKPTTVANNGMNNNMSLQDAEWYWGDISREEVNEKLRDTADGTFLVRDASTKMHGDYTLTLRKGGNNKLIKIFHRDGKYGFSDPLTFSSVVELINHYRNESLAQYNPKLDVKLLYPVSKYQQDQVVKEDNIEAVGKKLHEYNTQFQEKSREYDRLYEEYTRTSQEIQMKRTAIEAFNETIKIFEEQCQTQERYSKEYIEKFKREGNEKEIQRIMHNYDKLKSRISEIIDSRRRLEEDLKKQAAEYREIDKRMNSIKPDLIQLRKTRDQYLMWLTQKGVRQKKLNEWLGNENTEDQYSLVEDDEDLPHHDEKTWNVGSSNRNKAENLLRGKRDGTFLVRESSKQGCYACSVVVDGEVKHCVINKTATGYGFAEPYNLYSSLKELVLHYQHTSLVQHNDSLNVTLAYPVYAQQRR
In short: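 Kinase in Tris-HCl 40 mM pH 7.5, MgCl2 20 mM, orthovanadate 3 mM, DTT 2 mM, 0.05% CHAPS, 1% DMSO, preincubated 10 min at room temperature with compound (about 0.5 nM–100 μM). ATP started a 30-min reaction at 30 °C. ADP-Glo luminescence converted to μM ADP via standard curve; IC50 from nonlinear regression.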

[10] = tested on: Rb Ser780 phosphorylation in MCF-7 cells; assay: Determination of pRb levels (Ser780 phosphorylation, ELISA); assay type: cell-based; conditions: Homo sapiens
Procedure: Hypo-phosphorylation of the retinoblastoma protein (Rb) by cyclin D:Cdk4/6 complexes results in active Rb, which is a clinically relevant biomarker associated with CDK4 or CDK6 inhibition. As a confirmatory measure of functional activity of CDK4/6, the Ser780 phosphorylation state of Rb was assessed. MCF-7 cells were plated at 2.5×10^5 to 3.0×10^6 cells/well in 6-well cell-culture plates and incubated at 37° C. for 24H in MEM medium supplemented with 10% FBS. Cells were treated for 24H with a medium containing test compound at various concentrations (e.g., 0.01, 0.1, […]) or with DMSO (≤1%) in duplicate. After incubation period, the media was removed, and cells were rinsed once with ice-cold PBS and lysed with 0.2 mL of Cell Lysis Buffer containing 1 mM PMSF and Protease Inhibitor. Protein concentration was estimated following Bradford method. The lysis and the Rb measurements were performed following the manufacturer's ELISA kit protocols and buffers (Cell Signaling Technology, Cat. No.: 13016C). Rb inhibition of test compounds was calculated as percentage of vehicle control. In some cases, a nonlinear regression model with a sigmoidal dose response and variable slope within GraphPad Prism was used to calculate the IC50 value of Rb inhibition for individual test compounds.

[11] = molecular target: T7, CDK9 (cyclin K) (Homo sapiens, UniProt P50750); assay: LanthaScreen Eu Kinase Binding Assay
T7 construct: purchased Invitrogen Life Technologies (assay service)
Procedure: 0.16 μL of 100×test compound in 100% DMSO (at specific solutions) were mixed with 3.84 μL of Kinase Buffer (50 mM HEPES pH 7.5, 0.01% BRIJ-35, 10 mM MgCl2, 1 mM EGTA), 8.0 μL of 2× Kinase (5 nM)/Antibody (Eu-anti-His, 2 nM) Mixture and 4.0 μL of 4×Tracer (Tracer 236, 100 nM). The plates were shaken for 30 seconds, and incubated for 60 minutes at room temperature. The plates were read on fluorescence plate reader with Dual emission at 615 nm and 665 nm.
The following equations were used for LanthaScreen Eu Kinase Binding Assay Data Analysis. Percent inhibition (100-% activity) was fitted to the “four-parameter logistic model” in XLfit for determination of IC50 values.

[12] = MCF7, Table 4, Rb positive, treatment 144 Hr with medium change at 72 Hr, Cell Titer-Glo or resazurin
[13] = MCF7, Table 5, parental, non-resistant cell line compared with MCF-7-PR

IC50 [1] [µM] | IC50 [2] [µM] | IC50 [3] [µM] | IC50 [4] [µM] | IC50 [5] [µM] | IC50 [6] [µM] | IC50 [7] [µM] | IC50 [8, 12] [µM] | IC50 [9] [µM] | IC50 ([10]; MCF7, 24H treatment, read-out: Inhibition of Rb phosphorylation IC50) [µM] | IC50 ([3]; read-out: CDK1/B IC50) [µM] | IC50 [11] [µM] | Compound | IC50 [8, 13] [µM] | inhibition at 0.01 µM ([10]; MCF7, 0.01 μM, 24H treatment, percentage of vehicle control) [%] | inhibition at 0.1 µM ([10]; MCF7, 0.1 μM, 24H treatment, percentage of vehicle control) [%] | inhibition at 1 µM ([10]; MCF7, 1 μM, 24H treatment, percentage of vehicle control) [%] | resistance to palbociclib compared to parental MCF-7 cells (increase in cell viability IC50) ([6]; MCF-7-PR versus parental MCF-7)
0.01 | 0.069 | > 2.6 | 0.013 | 0.015 | 0.769 | 0.9 | 0.515 | – | – | – | – | CS(=O)(=O)N1CCC(Nc2ncc3cc(C#N)c(=O)n([C@H]4C[C@@H]5CC[C@H]4C5)c3n2)CC1 (racemic) [Compound No. 353, 8-((1S,2S,4R)-bicyclo[2.2.1]heptan-2-yl)-2-(1-(methylsulfonyl)piperidin-4-ylamino)-7-oxo-7,8-dihydropyrido[2,3-d]pyrimidine-6-carbonitrile] | 0.347 | – | – | – | –
– | 0.006 | – | 0.0095 | 0.0045 | 0.085 | – | 0.11 | – | – | – | – | N#Cc1cc2cnc(Nc3ccc(N4CCNCC4)c(Cl)c3)nc2n(C2CCCC2)c1=O [Compound No. 30, 2-((3-chloro-4-(piperazin-1-yl)phenyl)amino)-8-cyclopentyl-7-oxo-7,8-dihydropyrido[2,3-d]pyrimidine-6-carbonitrile] | 0.115 | – | – | – | –
– | 0.0042 | – | > 0.2 | > 0.2 | 0.065 | – | 0.155 | 1.66 | – | – | – | N#Cc1cc2cnc(Nc3ccc(N4CCNCC4)c(C(F)(F)F)c3)nc2n(C2CCCC2)c1=O [Compound No. 33, 8-cyclopentyl-7-oxo-2-((4-(piperazin-1-yl)-3-(trifluoromethyl)phenyl)amino)-7,8-dihydropyrido[2,3-d]pyrimidine-6-carbonitrile] | 0.205 | – | – | – | –
– | 0.007 | – | 0.0015 | 0.002 | – | – | 2.27 | 0.906 | – | – | – | N#Cc1cc2cnc(Nc3ccc(N4CCNCC4)cc3)nc2n(C2CCCc3ccccc32)c1=O (stereo not shown) [Compound No. 39, 7-oxo-2-((4-(piperazin-1-yl)phenyl)amino)-8-(1,2,3,4-tetrahydronaphthalen-1-yl)-7,8-dihydropyrido[2,3-d]pyrimidine-6-carbonitrile] | – | -25 | 40 | 52 | –
– | 0.001 | – | 0.017 | 0.023 | 1.04 | 2.44 | 0.395 | – | 0.505 | – | – | N#Cc1cc2cnc(Nc3cnn(C4CCNCC4)c3)nc2n(C2CCCC2)c1=O [Compound No. 50, 8-cyclopentyl-7-oxo-2-((1-(piperidin-4-yl)-1H-pyrazol-4-yl)amino)-7,8-dihydropyrido [2,3-d] pyrimidine-6-carbonitrile] | 0.664 | – | – | – | –
0.426 | – | – | 0.006 | 0.007 | – | 0.975 | 0.568 | – | – | 1.72 | 0.083 | N#Cc1cc2cnc(Nc3ccc4c(c3)CCN(CCN)C4)nc2n(C2CCCC2)c1=O [Compound No. 66, 2-((2-(2-aminoethyl)-1,2,3,4-tetrahydroisoquinolin-6-yl)amino)-8-cyclopentyl-7-oxo-7,8-dihydropyrido[2,3-d]pyrimidine-6-carbonitrile] | – | – | – | – | –
– | – | – | – | – | – | – | – | – | – | – | – | CC(=O)c1c(C)c2cnc(Nc3ccc(N4CCNCC4)cn3)nc2n(C2CCCC2)c1=O [palbociclib, reference compound] | – | – | – | – | at least 5 fold
